Laboratory results published in patent US10287251B2, “Pyrazole derivative or pharmaceutically acceptable salt thereof” (KISSEI PHARMACEUTICAL CO., LTD., priority 2015, dated 2019).

Assays:
[1] = system: overactive bladder induced by acetic acid; assay: Confirmation test of elongation action of micturition interval of overactive bladder induced by acetic acid; format: in vivo; details: Rattus norvegicus, iv; urethane-anesthetized female SD rats, 1 mg/kg/mL via femoral vein, intravesical 0.25% acetic acid; interval after/before administration x100
Excerpt: Further, TRPM8 inhibitory activity can be evaluated by the efficacy inhibiting the wet-dog shake action which is induced by the administration of Icilin, TRPM8 agonist. Furthermore, an effect on overactive bladder (OAB) can be evaluated by an elongation of micturition interval against overactive bladder induced by acetic acid in accordance with a similar method described in J. Urol., 2001, 166, 1142. Confirmation Test of Elongation Action of Micturition Interval of Overactive Bladder Induced by Acetic Acid Urethane (sigma) was dissolved into pure water by 25% w/v, and female SD rats were anesthetized with 1.25 g/kg urethane by subcutaneous administration. Cannulae were placed in femoral vein and bladder, and the bladder cannula was connected to both a syringe pump and a pressure transducer. Detrusor overactivity was induced by intravesical infusion of 0.25% acetic acid in saline at a rate of 3.6 mL/h, and intravesical pressure was monitored via pressure transducer concurrently. Test compounds were dissolved into a mixture of dimethylacetamide and saline (20:80), and were administered via, the femoral vein. Elongation of micturition interval (%) by test compound was calculated from the following formula: [an average of the three micturition interval after administration/an average of the three micturition interval before administration]×100.

TRPM8 = molecular target: T1, TRPM8 (Rattus norvegicus, UniProt Q8R455); assay: Confirmation test of inhibitory effects on icilin-induced wet-dog shakes; format: in vivo; details: female SD rats, icilin 1 mg/kg i.p. 1 hour after dosing, shakes counted for 5 minutes
T1 construct: from tissue; host or cells: whole animal, female SD rats (in vivo)
Procedure, shortened: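 Female SD rats received compounds orally at 0.3 to 10 mg/kg in 5% dimethylacetamide/0.5% methylcellulose. One hour later, icilin (1 mg/kg, i.p., in PEG 400) was given, and wet-dog shakes were counted for 5 min starting 5 min after icilin. Percent inhibition was calculated against vehicle-treated rats.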

T1 sequence (Q8R455 whole entry): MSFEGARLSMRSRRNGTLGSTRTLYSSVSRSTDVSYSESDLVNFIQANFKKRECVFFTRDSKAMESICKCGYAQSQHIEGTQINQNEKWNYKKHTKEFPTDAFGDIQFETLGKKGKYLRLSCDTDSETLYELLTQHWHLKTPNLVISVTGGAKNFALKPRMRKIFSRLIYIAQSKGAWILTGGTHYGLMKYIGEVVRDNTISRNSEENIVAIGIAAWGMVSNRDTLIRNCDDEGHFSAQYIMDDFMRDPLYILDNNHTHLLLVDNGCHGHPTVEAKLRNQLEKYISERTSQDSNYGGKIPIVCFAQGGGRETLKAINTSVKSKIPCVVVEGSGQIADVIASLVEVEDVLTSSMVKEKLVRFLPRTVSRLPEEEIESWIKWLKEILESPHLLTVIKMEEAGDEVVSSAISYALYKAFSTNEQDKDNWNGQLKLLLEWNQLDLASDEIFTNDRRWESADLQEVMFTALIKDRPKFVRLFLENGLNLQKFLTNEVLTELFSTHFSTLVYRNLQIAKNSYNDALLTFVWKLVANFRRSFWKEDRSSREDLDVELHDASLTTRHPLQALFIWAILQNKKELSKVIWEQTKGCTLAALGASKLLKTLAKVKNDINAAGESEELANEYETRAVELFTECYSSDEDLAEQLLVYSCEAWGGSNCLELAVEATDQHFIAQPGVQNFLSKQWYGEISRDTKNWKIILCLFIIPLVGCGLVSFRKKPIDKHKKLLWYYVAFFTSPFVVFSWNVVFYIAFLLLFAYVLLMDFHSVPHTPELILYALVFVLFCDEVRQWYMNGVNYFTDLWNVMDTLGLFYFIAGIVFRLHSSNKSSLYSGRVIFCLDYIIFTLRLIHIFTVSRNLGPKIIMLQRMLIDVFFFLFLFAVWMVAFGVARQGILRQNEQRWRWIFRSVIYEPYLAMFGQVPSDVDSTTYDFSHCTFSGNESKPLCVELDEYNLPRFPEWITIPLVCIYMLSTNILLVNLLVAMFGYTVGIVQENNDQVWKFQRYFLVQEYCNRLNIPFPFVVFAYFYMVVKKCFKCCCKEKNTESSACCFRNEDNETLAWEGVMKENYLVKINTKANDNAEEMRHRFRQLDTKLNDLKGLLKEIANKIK

Structure (SMILES) | % inhibition of Wet-Dog Shake (TRPM8; oral dose 1 mg/kg) [%] | % inhibition of Wet-Dog Shake (TRPM8; oral dose 3 mg/kg) [%] | % inhibition of Wet-Dog Shake (TRPM8; oral dose 0.3 mg/kg) [%] | response vs control in vivo at 1 mg/kg [1] [%]
O=C(N[C@@H](CCO)Cc1ccccn1)c1cccc(F)c1-c1cc(-c2ccc(F)cc2)[nH]n1 [Example 1-1, 3-Fluoro-2-[5-(4-fluorophenyl)-1H-pyrazol-3-yl]-N-[(2R)-4-hydroxy-1-(pyridin-2-yl)butan-2-yl]benzamide] | 82 | – | – | 169
NC(=O)[C@H](Cc1ccccc1)NC(=O)c1ccccc1-c1cc(-c2ccccc2)[nH]n1 [Example 1-14] | – | – | – | 138
O=C(N[C@@H](CO)Cc1ccccn1)c1ccccc1-c1cc(-c2ccc(F)cc2)[nH]n1 [Example 1-58] | – | 86 | – | 159
O=C(N[C@@H](CO)Cc1ccccn1)c1cccc(F)c1-c1cc(-c2ccc(F)cc2)[nH]n1 [Example 1-84] | 59 | – | – | 183
O=C(N[C@@H](CCO)Cc1ncccc1F)c1cccc(F)c1-c1cc(-c2ccc(F)cc2)[nH]n1 [Example 1-125] | 56 | – | – | 223
O=C(N[C@H](Cc1ccccn1)[C@H](O)CO)c1cccc(F)c1-c1cc(-c2ccc(F)cc2)[nH]n1 [Example 1-139] | – | – | – | 163
O=C(N[C@H](Cc1ccccn1)[C@H](O)CO)c1ccccc1-c1n[nH]c(-c2ccc(F)cc2)c1F [Example 1-172] | 100 | – | – | 194
CO[C@H](CO)[C@@H](Cc1ncccn1)NC(=O)c1cccc(F)c1-c1cc(-c2ccc(F)cc2)[nH]n1 [Example 1-227] | 66 | – | – | 193
CO[C@H](CO)[C@@H](Cc1ncccn1)NC(=O)c1ccccc1-c1cc(-c2ccc(F)cc2)[nH]n1 [Example 1-238] | 82 | – | – | 136
CO[C@H](CO)[C@@H](Cn1cccn1)NC(=O)c1cccc(F)c1-c1cc(-c2ccc(F)cc2)[nH]n1 [Example 27-1, 3-Fluoro-2-[5-(4-fluorophenyl)-1H-pyrazol-3-yl]-N-[(2R,3S)-4-hydroxy-3-methoxy-1-(1H-pyrazol-1-yl)butan-2-yl]benzamide] | 84 | – | – | 158
CO[C@H](CO)[C@@H](Cn1cccn1)NC(=O)c1ccccc1-c1cc(-c2ccc(F)cc2)[nH]n1 [Example 27-7] | 88 | – | – | 176
CO[C@H](CO)[C@@H](Cn1cccn1)NC(=O)c1cccc(F)c1-c1cc(-c2ccc(Cl)cc2)[nH]n1 [Example 27-14] | 51 | – | – | 195
CO[C@H](CO)[C@@H](Cn1cccn1)NC(=O)c1cccc(F)c1-c1n[nH]c(-c2ccc(F)cc2)c1F [Example 27-25] | 90 | – | – | 167

Now from value to compound, other results behind:

% inhibition of Wet-Dog Shake (TRPM8; oral dose 1 mg/kg) [%] | % inhibition of Wet-Dog Shake (TRPM8; oral dose 3 mg/kg) [%] | % inhibition of Wet-Dog Shake (TRPM8; oral dose 0.3 mg/kg) [%] | Structure (SMILES) | response vs control in vivo at 1 mg/kg [1] [%]
90 | – | – | CO[C@H](CO)[C@@H](Cc1ccccn1)NC(=O)c1cccc(F)c1-c1cc(-c2ccc(Cl)cc2)[nH]n1 [Example 43-1, 2-[5-(4-Chlorophenyl)-1H-pyrazol-3-yl]-3-fluoro-N-[(2R,3 S)-4-hydroxy-3-methoxy-1-(pyridin-2-yl)butan-2-yl]benzamide] | 156
– | – | 58 | CO[C@H](CO)[C@@H](Cc1ccccn1)NC(=O)c1cccc(F)c1-c1cc(-c2ccc(F)cc2)[nH]n1 [Example 43-3] | 158
– | 80 | – | O=C(N[C@H](Cc1ccccn1)[C@H](F)CO)c1cccc(Cl)c1-c1cc(-c2ccc(F)cc2)[nH]n1 [Example 43-27] | 185
81 | – | – | O=C(N[C@H](Cn1cccn1)[C@H](F)CO)c1cccc(F)c1-c1n[nH]c(-c2ccc(F)cc2)c1F [Example 43-39] | –
– | – | 54 | O=C(N[C@H](Cc1ncccc1F)[C@H](F)CO)c1cccc(F)c1-c1cc(-c2ccc(F)cc2)[nH]n1 [Example 43-41] | –
100 | – | – | O=C(N[C@H](Cn1nccn1)[C@H](F)CO)c1cccc(F)c1-c1cc(-c2ccc(F)cc2)[nH]n1 [Example 43-42] | 158
– | – | 93 | O=C(N[C@H](Cn1nccn1)[C@H](F)CO)c1cccc(F)c1-c1n[nH]c(-c2ccc(F)cc2)c1F [Example 43-43] | 172
– | 69 | – | O=C(N[C@H](Cn1cccn1)[C@H](F)CO)c1cccc(F)c1-c1cc(-c2ccc(Cl)cc2)[nH]n1 [Example 43-44] | –
– | 40 | – | O=C(N[C@H](Cn1cccn1)[C@H](F)CO)c1cccc(Cl)c1-c1cc(-c2ccc(F)cc2)[nH]n1 [Example 43-45] | –
– | 70 | – | O=C(N[C@H](Cn1cccn1)[C@H](F)CO)c1cccc(F)c1-c1cc(-c2ccc(F)cc2F)[nH]n1 [Example 43-46] | –
– | 48 | – | O=C1N[C@@H]([C@@H](Cc2ccccn2)NC(=O)c2cccc(F)c2-c2cc(-c3ccc(F)cc3)[nH]n2)CO1 [Example 47-1, 3-Fluoro-2-[5-(4-fluorophenyl)-1H-pyrazol-3-yl]-N-[(1R)-1-((4S)-2-oxo-1,3-oxazolidin-4-yl)-2-(pyridin-2-yl)ethyl]benzamide] | –
– | 78 | – | O=C1OC[C@H]([C@@H](Cc2ccccn2)NC(=O)c2cccc(F)c2-c2cc(-c3ccc(F)cc3)[nH]n2)O1 [Example 47-2] | –
92 | – | – | O=C(N[C@H](Cn1cccn1)C(F)(F)CO)c1cccc(F)c1-c1cc(-c2ccc(F)cc2)[nH]n1 [Example 50-1, N-[(2R)-3,3-Difluoro-4-hydroxy-1-(1H-pyrazol-1-yl)butan-2-yl]-3-fluoro-2-[5-(4-fluorophenyl)-1H-pyrazol-3-yl]benzamide] | 217
– | 89 | – | O=C(N[C@H](Cc1ncccn1)[C@@H](O)CF)c1cccc(F)c1-c1cc(-c2ccc(F)cc2)[nH]n1 [Example 50-2] | –
– | 100 | – | O=C(N[C@H](Cc1ncccn1)C(F)(F)CO)c1cccc(F)c1-c1cc(-c2ccc(F)cc2)[nH]n1 [Example 50-4] | –
100 | – | – | O=C(N[C@H](Cc1ccccn1)C(F)(F)CO)c1cccc(F)c1-c1cc(-c2ccc(F)cc2)[nH]n1 [Example 50-5] | –
54 | – | – | O=C(N[C@H](Cn1cccn1)[C@H](F)CO)c1cccc(F)c1-c1cc(-c2ccc(F)cc2)[nH]n1 [Example 50-6] | 197
– | 99 | – | O=C(N[C@H](Cc1ccccn1)[C@H](F)CO)c1cccc(F)c1-c1cc(-c2ccc(Cl)cc2)[nH]n1 [Example 50-7] | –
– | 82 | – | O=C(N[C@H](Cn1cccn1)[C@@H](O)CF)c1cccc(F)c1-c1cc(-c2ccc(F)cc2)[nH]n1 [Example 50-8] | –
56 | – | – | O=C(N[C@H](Cc1ncccn1)[C@H](F)CO)c1cccc(F)c1-c1n[nH]c(-c2ccc(F)cc2)c1F [Example 50-10] | –
– | 100 | – | O=C(N[C@H](Cn1cccn1)[C@@H](F)CO)c1cccc(F)c1-c1cc(-c2ccc(F)cc2)[nH]n1 [Example 50-11] | –
– | 62 | – | O=C(N[C@@H](CCO)C(O)c1ccccn1)c1cccc(F)c1-c1cc(-c2ccc(F)cc2)[nH]n1 (stereo partly shown) [Example 54-3] | –
– | 50 | – | C[C@H](O)C[C@H](NC(=O)c1cccc(F)c1-c1cc(-c2ccc(F)cc2)[nH]n1)C(O)c1ccccn1 (stereo partly shown) [Example 54-4] | –
– | 47 | – | O=C(N[C@H](Cc1ccccn1)[C@@H](O)CO)c1cccc(F)c1-c1cc(-c2ccc(F)cc2)[nH]n1 [Example 54-6] | –
– | 41 | – | O=C(N[C@H](Cc1ccccn1)C[C@H](O)CO)c1cccc(F)c1-c1cc(-c2ccc(Cl)cc2)[nH]n1 [Example 54-7] | –
– | 40 | – | O=C(N[C@H](Cc1ccccn1)[C@@H](O)CO)c1cccc(F)c1-c1n[nH]c(-c2ccc(F)cc2)c1F [Example 54-9] | –
– | 77 | – | CC(c1ccccn1)[C@@H](NC(=O)c1cccc(F)c1-c1cc(-c2ccc(F)cc2)[nH]n1)[C@H](O)CO (stereo partly shown) [Example 54-14] | –
– | 42 | – | CC(c1ccccn1)[C@@H](NC(=O)c1cccc(F)c1-c1n[nH]c(-c2ccc(F)cc2)c1F)[C@H](O)CO (stereo partly shown) [Example 54-17] | –
– | 68 | – | COC(c1ccccn1)[C@@H](NC(=O)c1cccc(F)c1-c1cc(-c2ccc(F)cc2)[nH]n1)[C@H](O)CO (stereo partly shown) [Example 54-19] | –
92 | – | – | COC[C@@H](O)[C@@H](Cn1nccn1)NC(=O)c1cccc(F)c1-c1cc(-c2ccc(F)cc2)[nH]n1 [Example 60-1] | –
